{"source": "the supplement of paper PMC4862054"}
{"tested_on": "HCC1599", "experiment": "normalised response (% of control), CellTiter-Glo; higher = more viable cells (100 = DMSO, 0 = benzethonium chloride kill control)", "conditions": "incubation time: 72 h", "how_it_was_run": "(§1)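 Each value is the plate-normalised signal at one concentration of the series. Breast cancer cell lines (20 µl suspension) were incubated 72 h in 384-well plates with compound at 5 concentrations in 10-fold steps over a compound-specific 10,000-fold range. CellTox Green and then CellTiter-Glo were read, and each plate was scaled to 0.1 % DMSO (100) and a positive kill control (0).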", "units": {"normalised response": "%"}}
{"smiles": "CC[C@H](C)C(=O)O[C@H]1C[C@H](O)C=C2C=C[C@H](C)[C@H](CC[C@@H](O)C[C@@H](O)CC(=O)O)[C@H]21", "note": "[Pravastatin] (1000 nM)", "normalised response": 70.8}
{"smiles": "Cc1cnc(NC(=O)Nc2cc(Br)c(C)cc2OC[C@@H]2CNCCO2)cn1", "note": "[Rabusertib] (100 nM)", "normalised response": 108}
{"smiles": "COc1cc2nccc(Oc3ccc(NC(=O)Nc4cc(C)on4)c(Cl)c3)c2cc1OC", "note": "[Tivozanib] (1000 nM)", "normalised response": 92.9}
{"tested_on": "MDA-MB-231", "experiment": "normalised response (% of control), CellTiter-Glo; higher = more viable cells (100 = DMSO, 0 = benzethonium chloride kill control)", "conditions": "incubation time: 72 h", "how_it_was_run": "as §1", "units": {"normalised response": "%"}}
{"smiles": "O=C(Cc1ccc(-c2ccc(OCCN3CCOCC3)cc2)cn1)NCc1ccccc1", "note": "[KX2-391] (1000 nM)", "normalised response": 46.6}
{"smiles": "C=CCc1cccc(/C=N/NC(=O)CN2CCN(Cc3ccccc3)CC2)c1O", "note": "[PAC-1] (1000 nM)", "normalised response": 96.8}
{"smiles": "Oc1ncc(N(CCCl)CCCl)c(O)n1", "note": "[Uracil mustard] (1000 nM)", "normalised response": 96.5}
{"smiles": "O=C(O)C(=O)O.[NH-][C@@H]1CCCC[C@H]1[NH-].[Pt+2]", "note": "[Oxaliplatin] (1000 nM)", "normalised response": 97}
{"smiles": "Nc1nc2[nH]cc(CCc3ccc(C(=O)N[C@@H](CCC(=O)O)C(=O)O)cc3)c2c(=O)[nH]1", "note": "[Pemetrexed] (1000 nM)", "normalised response": 65.6}
{"smiles": "O=C(O)C1(C(=O)O)CCC1.[NH2-].[NH2-].[Pt+2]", "note": "[Carboplatin] (1000 nM)", "normalised response": 94.4}
{"smiles": "CC[C@H](C)C(=O)O[C@H]1C[C@H](O)C=C2C=C[C@H](C)[C@H](CC[C@@H](O)C[C@@H](O)CC(=O)O)[C@H]21", "note": "[Pravastatin] (1000 nM)", "normalised response": 89.9}
{"smiles": "Cc1cnc(NC(=O)Nc2cc(Br)c(C)cc2OC[C@@H]2CNCCO2)cn1", "note": "[Rabusertib] (100 nM)", "normalised response": 104}
{"smiles": "COc1cc2nccc(Oc3ccc(NC(=O)Nc4cc(C)on4)c(Cl)c3)c2cc1OC", "note": "[Tivozanib] (1000 nM)", "normalised response": 89}
{"tested_on": "Hs578T", "experiment": "normalised response (% of control), CellTiter-Glo; higher = more viable cells (100 = DMSO, 0 = benzethonium chloride kill control)", "conditions": "incubation time: 72 h", "how_it_was_run": "as §1", "units": {"normalised response": "%"}}
{"smiles": "O=C(Cc1ccc(-c2ccc(OCCN3CCOCC3)cc2)cn1)NCc1ccccc1", "note": "[KX2-391] (1000 nM)", "normalised response": 19.7}
{"smiles": "C=CCc1cccc(/C=N/NC(=O)CN2CCN(Cc3ccccc3)CC2)c1O", "note": "[PAC-1] (1000 nM)", "normalised response": 103}
{"smiles": "Oc1ncc(N(CCCl)CCCl)c(O)n1", "note": "[Uracil mustard] (1000 nM)", "normalised response": 99}
{"smiles": "O=C(O)C(=O)O.[NH-][C@@H]1CCCC[C@H]1[NH-].[Pt+2]", "note": "[Oxaliplatin] (1000 nM)", "normalised response": 104}
{"smiles": "Nc1nc2[nH]cc(CCc3ccc(C(=O)N[C@@H](CCC(=O)O)C(=O)O)cc3)c2c(=O)[nH]1", "note": "[Pemetrexed] (1000 nM)", "normalised response": 17.1}
{"smiles": "O=C(O)C1(C(=O)O)CCC1.[NH2-].[NH2-].[Pt+2]", "note": "[Carboplatin] (1000 nM)", "normalised response": 95.1}
{"smiles": "CC[C@H](C)C(=O)O[C@H]1C[C@H](O)C=C2C=C[C@H](C)[C@H](CC[C@@H](O)C[C@@H](O)CC(=O)O)[C@H]21", "note": "[Pravastatin] (1000 nM)", "normalised response": 98.4}
{"smiles": "Cc1cnc(NC(=O)Nc2cc(Br)c(C)cc2OC[C@@H]2CNCCO2)cn1", "note": "[Rabusertib] (100 nM)", "normalised response": 98.7}
{"smiles": "COc1cc2nccc(Oc3ccc(NC(=O)Nc4cc(C)on4)c(Cl)c3)c2cc1OC", "note": "[Tivozanib] (1000 nM)", "normalised response": 104}
{"tested_on": "HDQ-P1", "experiment": "normalised response (% of control), CellTiter-Glo; higher = more viable cells (100 = DMSO, 0 = benzethonium chloride kill control)", "conditions": "incubation time: 72 h", "how_it_was_run": "as §1", "units": {"normalised response": "%"}}
{"smiles": "O=C(Cc1ccc(-c2ccc(OCCN3CCOCC3)cc2)cn1)NCc1ccccc1", "note": "[KX2-391] (1000 nM)", "normalised response": 70.8}
{"smiles": "C=CCc1cccc(/C=N/NC(=O)CN2CCN(Cc3ccccc3)CC2)c1O", "note": "[PAC-1] (1000 nM)", "normalised response": 93.3}
{"smiles": "Oc1ncc(N(CCCl)CCCl)c(O)n1", "note": "[Uracil mustard] (1000 nM)", "normalised response": 105}
{"smiles": "O=C(O)C(=O)O.[NH-][C@@H]1CCCC[C@H]1[NH-].[Pt+2]", "note": "[Oxaliplatin] (1000 nM)", "normalised response": 106}
{"smiles": "Nc1nc2[nH]cc(CCc3ccc(C(=O)N[C@@H](CCC(=O)O)C(=O)O)cc3)c2c(=O)[nH]1", "note": "[Pemetrexed] (1000 nM)", "normalised response": 83.2}
{"smiles": "O=C(O)C1(C(=O)O)CCC1.[NH2-].[NH2-].[Pt+2]", "note": "[Carboplatin] (1000 nM)", "normalised response": 95.4}
{"smiles": "CC[C@H](C)C(=O)O[C@H]1C[C@H](O)C=C2C=C[C@H](C)[C@H](CC[C@@H](O)C[C@@H](O)CC(=O)O)[C@H]21", "note": "[Pravastatin] (1000 nM)", "normalised response": 92.2}
{"smiles": "Cc1cnc(NC(=O)Nc2cc(Br)c(C)cc2OC[C@@H]2CNCCO2)cn1", "note": "[Rabusertib] (100 nM)", "normalised response": 105}
{"smiles": "COc1cc2nccc(Oc3ccc(NC(=O)Nc4cc(C)on4)c(Cl)c3)c2cc1OC", "note": "[Tivozanib] (1000 nM)", "normalised response": 98.6}
{"tested_on": "CAL-148", "experiment": "normalised response (% of control), CellTiter-Glo; higher = more viable cells (100 = DMSO, 0 = benzethonium chloride kill control)", "conditions": "incubation time: 72 h", "how_it_was_run": "as §1", "units": {"normalised response": "%"}}
{"smiles": "O=C(Cc1ccc(-c2ccc(OCCN3CCOCC3)cc2)cn1)NCc1ccccc1", "note": "[KX2-391] (1000 nM)", "normalised response": 41.4}
{"smiles": "C=CCc1cccc(/C=N/NC(=O)CN2CCN(Cc3ccccc3)CC2)c1O", "note": "[PAC-1] (1000 nM)", "normalised response": 101}
{"smiles": "Oc1ncc(N(CCCl)CCCl)c(O)n1", "note": "[Uracil mustard] (1000 nM)", "normalised response": 93.9}
{"smiles": "O=C(O)C(=O)O.[NH-][C@@H]1CCCC[C@H]1[NH-].[Pt+2]", "note": "[Oxaliplatin] (1000 nM)", "normalised response": 82.5}
{"smiles": "Nc1nc2[nH]cc(CCc3ccc(C(=O)N[C@@H](CCC(=O)O)C(=O)O)cc3)c2c(=O)[nH]1", "note": "[Pemetrexed] (1000 nM)", "normalised response": 95.7}
{"smiles": "O=C(O)C1(C(=O)O)CCC1.[NH2-].[NH2-].[Pt+2]", "note": "[Carboplatin] (1000 nM)", "normalised response": 96.5}
{"smiles": "CC[C@H](C)C(=O)O[C@H]1C[C@H](O)C=C2C=C[C@H](C)[C@H](CC[C@@H](O)C[C@@H](O)CC(=O)O)[C@H]21", "note": "[Pravastatin] (1000 nM)", "normalised response": 87.6}
{"smiles": "Cc1cnc(NC(=O)Nc2cc(Br)c(C)cc2OC[C@@H]2CNCCO2)cn1", "note": "[Rabusertib] (100 nM)", "normalised response": 107}
{"smiles": "COc1cc2nccc(Oc3ccc(NC(=O)Nc4cc(C)on4)c(Cl)c3)c2cc1OC", "note": "[Tivozanib] (1000 nM)", "normalised response": 103}
{"tested_on": "DU-4475", "experiment": "normalised response (% of control), CellTiter-Glo; higher = more viable cells (100 = DMSO, 0 = benzethonium chloride kill control)", "conditions": "incubation time: 72 h", "how_it_was_run": "as §1", "units": {"normalised response": "%"}}
{"smiles": "O=C(Cc1ccc(-c2ccc(OCCN3CCOCC3)cc2)cn1)NCc1ccccc1", "note": "[KX2-391] (1000 nM)", "normalised response": 45.6}
{"smiles": "C=CCc1cccc(/C=N/NC(=O)CN2CCN(Cc3ccccc3)CC2)c1O", "note": "[PAC-1] (1000 nM)", "normalised response": 102}
{"smiles": "Oc1ncc(N(CCCl)CCCl)c(O)n1", "note": "[Uracil mustard] (1000 nM)", "normalised response": 95.4}
